In brackets after ≈: the same amount, converted by molar mass. Where only a bound is given, the exact number is not on record here.

Among the data in patent US20250215004A1, “AZOLO COMPOUNDS FOR TREATMENT OF FIBROTIC DISEASES” (GEORG-AUGUST-UNIVERSITÄT GÖTTINGEN STIFTUNG ÖFFENTLICHEN …, priority 2022, published 2025) are IC50 values, retold here.

The test system of assay [1] is TK173 cells. Put plainly: Collagen I Western blot in TGFβ1-treated TK173 fibroblasts. Format: cell-based. To be noted: Homo sapiens, Fibroblast, 10 ng/ml TGFβ1 for 5 days, then compound 48 hours, Collagen I immunoblot. The procedure:
(§1) Compound reconstitution. Prior to treatment, each compound was used from a stock solution of a concentration of 10 mg/ml in DMSO. Final concentration of DMSO in cell cultures was kept below 0.1%.
(§2) Cell culture and treatment. The human renal fibroblast cell line TK173 was derived from a normal human kidney (laboratory stock; (G. A. Müller et al., Exp. Nephrol. 1995, 3, 127). Cell line stabilization for research purposes was approved by the Ethics Committee of the Georg-August-University. TK173 cells were cultured in Dulbecco's modified Eagle's medium (DMEM, Gibco, USA) supplemented with 10% fetal bovine serum (FBS, Gibco, Germany) and 1% penicillin-streptomycin (PS, Gibco, USA) at 37° C. in a humidified atmosphere with 5% CO2. Cell line was routinely tested for mycoplasma contamination. To investigate the effect of compounds after profibrotic agent treatment, 3×10^4 TK173 cells were seeded in one well of a 6-well culture plate in normal medium. After 24 hours, the culture medium was removed, and the cells were incubated for a further 24 hours in FBS free culture medium (starvation medium). Then, 10 ng/ml TGFβ1 (R&D Systems, USA) was added to the starvation medium, and the culture medium was changed with fresh TGFβ1 in every alternate day. After 5 days of TGFβ1 treatment, cell culture medium was replaced by starvation medium with compounds at different concentration for following 48 hours of incubation.
Protein Extraction. Total proteins were extracted from the cultured cells by NP40 Cell Lysis Buffer (Invitrogen, USA) containing phosphatase (Sigma-Aldrich, USA) and protease inhibitor (Roche, Switzerland) followed by sonication and centrifugation at 12,000×g for 20 minutes at 4° C. to clear the lysates. The supernatant was collected and measured using Pierce BCA Protein Assay Kit (ThermoFisher Scientific) by PHOmo Microplate Reader (Autobio, China). The samples were stored at −80° C. prior to use.
Immunoblotting. Western blot analysis, 10 μg of extracted proteins were diluted in NuPAGE LDS Samples Buffer (Novex Life technologies, USA) containing 5% 2-Mercaptoethanol (Sigma-Aldrich, Germany), and following denatured for 5 minutes at 95° C. The proteins were resolved by 4-12% NuPAGE SDS-PAGE (Novex Life technologies, USA). Blots were often stripped with Thermo Scientific Restore PLUS Western Blot Stripping Buffer (Thermo Fisher Scientific, Germany) for reprobing. The following antibodies were used for immunoblotting: Collagen I (1:1000; ab233080, Abcam, USA), alpha smooth muscle Actin (1:1000; ab124964, Abcam, USA), GAPDH (1:8000; sc-32233, Santa Cruz, USA). Proteins were detected by LumiGLO chemiluminescent system (Cell Signaling Technology, USA) with appropriate secondary antibodies: anti-mouse HRP (1:2500; Dako, Denmark) and anti-rabbit HRP (1:2500; 7074, Cell Signaling Technology, USA) using ChemiDoc MP Imaging System (Bio-Rad, USA).
(Immunoblotting shows a protein as a band on a membrane.)

The test system of assay [2] is TK173 cells. Put plainly: ELISA to detect secreted type I collagen (Pro-Collagen I alpha 1) in conditioned media of TGFβ1-treated TK173 fibroblasts. Format: cell-based. To be noted: Homo sapiens, Fibroblast, 10 ng/ml TGFβ1 for 5 days, then compound 48 hours, Pro-Collagen I alpha 1 ELISA of conditioned media, read-out: IC50, concentration where the TGFβ-stimulated collagen secretion is attenuated by 50%. The procedure: as §1, §2
Conditioned media containing the secretome of TK173 fibroblast were harvested after 48 hours of compound treatments. Secretion of pro-Collagen 1 was assessed with Human Pro-Collagen I alpha 1 DuoSet ELISA (R&D Systems, USA). To prepare the ELISA plate, Human Pro-Collagen I α1 Capture Antibody was diluted in ELISA Plate-coating Buffer at 4 μg/ml working concentration. 100 μl of diluted Capture Antibody was added to the 96-well microplates and incubated overnight at room temperature. After three times washing with Wash Buffer, microplates were blocked by adding 300 μl of Reagent Diluent for 1 hour at room temperature. To proceed the ELISA, Human Pro-Collagen I α1 Standards were diluted in Reagent Diluent (range between 31.3 pg/ml-2000 pg/ml) and 100 μl of standards or conditioned mediums were add into designated wells. Microplates were incubated at room temperature for 2 hours. Human Pro-Collagen I α1 Detection Antibody was prepared in Reagent Diluent at 100 ng/ml working concentration and 100 μl of diluted Detection Antibody was applied for 2 hours at room temperature after extensive washing. Then, working solution of Streptavidin-HRP with Reagent Diluent was prepared by diluting 1:40 and added into each well. After 20 minutes at room temperature incubation, microplates were washed and applied with 100 μl of Substrate Solution for 20 minutes followed by Stop Solution after washing. Finally, signals were measured at 450 nm absorbance by PHOmo Microplate Reader (Autobio, China). The amount of pro-collagen 1 antibody fusion was quantified by extrapolating the signal into a linear range of a pro-collagen 1 standard curve. Screening compounds were typically tested in at concentrations between 5 and 200 μg/ml. The IC50 values observed by the dose response curves for each compound (n=4-6, two independent experiments) were obtained by nonlinear regression analysis using Prism 9 software (GraphPad, La Jolla, USA) and represent the concentration where the TGFβ-stimulated collagen secretion is attenuated by 50%.
On the technique in general: ELISA stands for enzyme-linked immunosorbent assay.

In the case of `CNc1nn2nnnc2c2ncccc12` (single isomer, unassigned) [Compound 27, N-methylpyrido[2,3-d]tetrazolo[1,5-b]pyridazin-6-amine], the IC50 in the assay with TK173 cells [1] is below 30 µg/mL.

For the compound `Cc1nn2nnnc2c2ccccc12` [Compound 2, 6-Methyl-tetrazolo[5,1-a]phthalazine], the IC50 in the assay on TK173 cells [2] was found to be 58 µg/mL (≈ 313 µM).

Regarding `Cc1nnc2c3ccccc3c(C#N)nn12` [Compound 6, 3-Methyl-1,2,4-triazolo[3,4-a]phthalazine-6-carbonitrile], the IC50 with TK173 cells [1] was below 5 µg/mL; with TK173 cells [2], 61 µg/mL (≈ 292 µM).

In the case of `Cc1nnc2c3ccccc3c(NCCO)nn12` [Compound 7, 2-[(3-methyl-1,2,4-triazolo[3,4-a]phthalazin-6-yl)amino]-ethanol], in the assay with TK173 cells [2], the IC50 turned out to be 32 µg/mL (≈ 132 µM).

With `COc1cc2cnn3c(C)nnc3c2cc1OC` [Compound 9, 8,9-Dimethoxy-3-methyl-1,2,4-triazolo[3,4-a]phthalazine], the IC50 with TK173 cells [1] is below 1 µg/mL; in the assay with TK173 cells [2] it was 10 µg/mL (≈ 40.9 µM).

With `FC(F)(F)c1nnc2c3ccccc3cnn12` [Compound 10, 3-Trifluoromethyl-1,2,4-Triazolo[3,4-a]phthalazine], in the assay on TK173 cells [2], the IC50 was found to be 93 µg/mL (≈ 390 µM).

As to `OCc1nnc2c3ccccc3cnn12` [Compound 13, 1,2,4-Triazolo[3,4-a]phthalazin-3-yl-methanol], the IC50 with TK173 cells [2] stood at 87 µg/mL (≈ 435 µM).

As to `CCc1nnc2c3ccccc3cnn12` [Compound 14, 3-Ethyl-1,2,4-triazolo[3,4-a]phthalazine], the IC50 with TK173 cells [1] was below 30 µg/mL.

On to `c1ccc2c(c1)cnn1cnnc21` [Compound 15, 1,2,4-Triazolo[3,4-a]phthalazine], for which the IC50 in the assay with TK173 cells [1] was below 40 µg/mL; in the assay with TK173 cells [2] it was 105 µg/mL (≈ 617 µM).

Take `c1cc2c(cnn3nnnc23)s1` [Compound 35, Tetrazolo[1,5-b]thieno[3,2-d]pyridazine]: the IC50 in the assay on TK173 cells [1] was below 40 µg/mL; in the assay on TK173 cells [2] it was 30 µg/mL (≈ 169 µM).

Take `Cc1nnc2c3cscc3c(Cl)nn12` [Compound 38, 6-chloro-3-methylthieno[3,4-d][1,2,4]triazolo[4,3-b]pyridazine]: the IC50 in the assay on TK173 cells [2] is below 80 µg/mL.

Turning to `Cc1nnc2c3cscc3cnn12` [Compound 39, 3-methylthieno[3,4-d][1,2,4]triazolo[4,3-b]pyridazine], the IC50 with TK173 cells [2] is below 80 µg/mL.

In the case of `c1nn2nnnc2c2cscc12` [Compound 41, Tetrazolo[1,5-b]thieno[3,4-d]pyridazine], in the assay with TK173 cells [2], the IC50 was below 60 µg/mL.

`Cc1nnc2c3c(Cl)cccc3cnn12` [Compound 45, 10-chloro-3-methyl-[1,2,4]triazolo[3,4-a]phthalazine]: the IC50 in the assay with TK173 cells [2] amounted to 20 µg/mL (≈ 91.5 µM).

As for `Clc1cccc2cnn3nnnc3c12` [Compound 47a, 10-chlorotetrazolo[5,1-a]phthalazine], the IC50 in the assay with TK173 cells [2] is below 5 µg/mL.

As for `Cc1nnc2c3cc(Cl)ccc3cnn12` [Compound 49a, 9-chloro-3-methyl-[1,2,4]triazolo[3,4-a]phthalazine], the IC50 in the assay on TK173 cells [1] is below 50 µg/mL; in the assay on TK173 cells [2], below 30 µg/mL.

With `Cc1nnc2c3ccc(Cl)cc3cnn12` [Compound 49b, 8-chloro-3-methyl-[1,2,4]triazolo[3,4-a]phthalazine], the IC50 with TK173 cells [2] turned out to be 30 µg/mL (≈ 137 µM).

As for `Clc1ccc2cnn3nnnc3c2c1` [Compound 51a, 9-chlorotetrazolo[5,1-a]phthalazine], in the assay with TK173 cells [1], the IC50 was at most 40 µg/mL.

As to `Cc1nnc2c3cc(Cl)c(Cl)cc3cnn12` [Compound 53, 8,9-Dichloro-3-methyl-[1,2,4]triazolo[3,4-a]phthalazine], the IC50 is below 60 µg/mL with TK173 cells [1] and below 20 µg/mL with TK173 cells [2].

As for `Clc1cc2cnn3nnnc3c2cc1Cl` [Compound 55, 8,9-Dichlorotetrazolo[5,1-a]phthalazine], the IC50 is below 20 µg/mL with TK173 cells [1] and below 10 µg/mL with TK173 cells [2].

Turning to `Fc1cccc2cnn3nnnc3c12` [Compound 59a, 10-Fluorotetrazolo[5,1-a]phthalazine], the IC50 in the assay on TK173 cells [2] was below 20 µg/mL.

For the compound `Fc1cccc2c1cnn1nnnc21` [Compound 59b, 7-fluorotetrazolo[5,1-a]phthalazine], in the assay on TK173 cells [2], the IC50 is below 5 µg/mL.

For `Cc1nnc2c3cc(F)ccc3cnn12` [Compound 61a, 9-Fluoro-3-methyl-[1,2,4]triazolo[3,4-a]phthalazine], the values for the IC50 in the assay on TK173 cells [1] and with TK173 cells [2] were below 60 µg/mL and 530 µg/mL (≈ 2620 µM), respectively.

For the compound `Cc1nnc2c3ccc(F)cc3cnn12` [Compound 61b, 8-fluoro-3-methyl-[1,2,4]triazolo[3,4-a]phthalazine], the IC50 was below 80 µg/mL in the assay with TK173 cells [1] and below 30 µg/mL in the assay with TK173 cells [2].

Take `Fc1ccc2cnn3nnnc3c2c1` [Compound 63a, 9-Fluorotetrazolo[5,1-a]phthalazine]: the IC50 with TK173 cells [1] is below 70 µg/mL; in the assay on TK173 cells [2], below 30 µg/mL.

As to `Fc1ccc2c(cnn3nnnc23)c1` [Compound 63b, 8-fluorotetrazolo[5,1-a]phthalazine], the figures for the IC50 in the assay with TK173 cells [1] and in the assay on TK173 cells [2] were below 30 µg/mL and below 50 µg/mL, respectively.

Take `Cc1nnc2c3cc(F)c(F)cc3cnn12` [Compound 65, 8,9-difluoro-3-methyl-[1,2,4]triazolo[3,4-a]phthalazine]: the IC50 with TK173 cells [1] and in the assay on TK173 cells [2] was below 50 µg/mL in each case.

In the case of `Fc1cc2cnn3nnnc3c2cc1F` [Compound 67, 8,9-difluorotetrazolo[5,1-a]phthalazine], the IC50 in the assay on TK173 cells [2] was below 3 µg/mL.

`COc1ccc2cnn3c(C)nnc3c2c1` [Compound 69a, 9-Methoxy-3-methyl-[1,2,4]triazolo[3,4-a]phthalazine]: the IC50 in the assay on TK173 cells [1] and with TK173 cells [2] was below 30 µg/mL each time.

On to `COc1ccc2c(cnn3c(C)nnc23)c1` [Compound 69b, 8-methoxy-3-methyl-[1,2,4]triazolo[3,4-a]phthalazine], for which the IC50 in the assay on TK173 cells [1] was below 80 µg/mL; in the assay with TK173 cells [2], below 30 µg/mL.

For the compound `CC(C)Oc1nn2nnnc2c2c(Cl)cccc12` [Compound 72, 10-Chloro-6-isopropoxytetrazolo[5,1-a]phthalazine], the IC50 with TK173 cells [1] and in the assay on TK173 cells [2] was below 5 µg/mL in each case.
